This note sets out measurements from ChEMBL document CHEMBL5678795 (Eur J Pharmacol, 1999).

The source made the active and inactive calls. No cut-off for these calls is given here. Some results are limits rather than exact numbers.

Series [1] is filed under the species Rattus norvegicus. Description: Displacement of [3H]batrachotoxinin from rat brain Voltage-gated Na+ channel (site 2) at 10 uM incubated for 60 mins by radiometric based scintillation counter assay relative to control. The class given is tissue-based. On the technique in general: In a radioligand displacement assay an active substance lowers the binding of a labelled ligand.

Series [2] concerns the target Vasoactive intestinal polypeptide receptor 1 (Homo sapiens) (UniProt P32241). Description: Displacement of [125I]VIP from human recombinant Vasoactive intestinal peptide receptor at 10 uM incubated for 60 mins by radiometric based scintillation counter assay relative to control.
Series [3] addresses 5-hydroxytryptamine receptor 1B (Homo sapiens) (UniProt P28222). Description: Displacement of [3H]GR125743 from human recombinant 5-Hydroxytryptamine 1B at 10 uM incubated for 60 mins by radiometric based scintillation counter assay relative to control.
Series [4] concerns the target 5-hydroxytryptamine receptor 6 (Homo sapiens) (UniProt P50406). Description: Displacement of [3H]LSD from human recombinant 5-Hydroxytryptamine 6 at 10 uM incubated for 120 mins by radiometric based scintillation counter assay relative to control.
For series [5], the target named is 5-hydroxytryptamine receptor 1A (Homo sapiens) (UniProt P08908). Description: Displacement of [3H]8-OH-DPAT from human recombinant 5-Hydroxytryptamine 1A at 10 uM incubated for 60 mins by radiometric based scintillation counter assay relative to control.
5-hydroxytryptamine receptor 1A (Homo sapiens), sequence (P08908 whole entry): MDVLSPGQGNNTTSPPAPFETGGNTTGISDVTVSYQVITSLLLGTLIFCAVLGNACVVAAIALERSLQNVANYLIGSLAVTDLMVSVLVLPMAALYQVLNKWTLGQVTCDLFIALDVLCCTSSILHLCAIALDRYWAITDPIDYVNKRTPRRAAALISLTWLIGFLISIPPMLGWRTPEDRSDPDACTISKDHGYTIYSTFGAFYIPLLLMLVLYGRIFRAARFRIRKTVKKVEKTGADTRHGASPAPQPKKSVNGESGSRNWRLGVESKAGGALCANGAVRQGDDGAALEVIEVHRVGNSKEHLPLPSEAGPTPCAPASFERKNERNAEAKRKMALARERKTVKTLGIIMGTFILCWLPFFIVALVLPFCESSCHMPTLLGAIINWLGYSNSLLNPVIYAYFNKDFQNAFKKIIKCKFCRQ
For series [6], the target named is Adenosine receptor A2a (Homo sapiens) (UniProt P29274). Description: Displacement of [3H]CGS 21680 from human recombinant Adenosine A2A receptor at 10 uM incubated for 120 mins by radiometric based scintillation counter assay relative to control.
Adenosine receptor A2a (Homo sapiens), sequence (P29274 whole entry): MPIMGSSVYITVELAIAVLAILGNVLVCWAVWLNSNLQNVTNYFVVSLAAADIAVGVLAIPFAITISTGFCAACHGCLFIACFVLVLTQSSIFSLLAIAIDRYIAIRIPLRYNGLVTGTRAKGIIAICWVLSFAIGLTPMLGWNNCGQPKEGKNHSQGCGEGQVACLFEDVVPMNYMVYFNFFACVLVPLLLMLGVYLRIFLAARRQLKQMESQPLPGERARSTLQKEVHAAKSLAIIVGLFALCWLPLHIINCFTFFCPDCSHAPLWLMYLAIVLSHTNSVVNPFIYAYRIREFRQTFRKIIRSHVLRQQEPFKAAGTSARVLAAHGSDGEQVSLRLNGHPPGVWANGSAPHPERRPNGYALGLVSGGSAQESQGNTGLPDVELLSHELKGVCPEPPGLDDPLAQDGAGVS
The species entered for series [7] is Mus musculus. Description: Displacement of [125I]PDGF BB from mouse platlet-derived growth factor receptor at 10 uM incubated for 180 mins by radiometric based scintillation counter assay relative to control.
Series [8] deals with Endothelin receptor type B (Oryctolagus cuniculus) (UniProt Q9N0W7). Description: Antagonist activity to ETB receptor in rabbit pulmonary artery assessed as induction of vessel ring contraction preincubated for 15 mins. The class given is functional, tissue-based.
Endothelin receptor type B (Oryctolagus cuniculus), sequence (Q9N0W7 whole entry): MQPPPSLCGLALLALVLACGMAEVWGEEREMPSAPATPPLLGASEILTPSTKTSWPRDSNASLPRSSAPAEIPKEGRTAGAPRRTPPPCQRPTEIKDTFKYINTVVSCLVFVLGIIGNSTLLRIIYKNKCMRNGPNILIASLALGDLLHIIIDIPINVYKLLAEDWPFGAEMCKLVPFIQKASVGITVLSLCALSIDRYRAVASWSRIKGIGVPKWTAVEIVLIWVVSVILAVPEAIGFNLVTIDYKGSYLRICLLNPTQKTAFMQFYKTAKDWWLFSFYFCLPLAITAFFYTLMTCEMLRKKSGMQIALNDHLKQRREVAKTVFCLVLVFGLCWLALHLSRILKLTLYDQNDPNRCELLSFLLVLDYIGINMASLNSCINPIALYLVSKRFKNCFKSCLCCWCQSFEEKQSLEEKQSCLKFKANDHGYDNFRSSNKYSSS
The target in series [9] is Sodium-dependent noradrenaline transporter (Homo sapiens) (UniProt P23975). Description: Inhibition of human norepinephrine expressed in CHO cells at 10 uM incubated for 180 mins by radiometric based scintillation counter assay relative to control. The class given is cell-based.
The nature of series [10]: Oral bioavailability in Sprague-Dawley rat at 10 mg/kg administered for 12 hrs by HPLC analysis. Conditions: in vivo. The class given is ADME, organism-based.
The target of series [11] is T1, Endothelin-1 receptor (Rattus norvegicus) (UniProt P26684).
T1 sequence (whole entry): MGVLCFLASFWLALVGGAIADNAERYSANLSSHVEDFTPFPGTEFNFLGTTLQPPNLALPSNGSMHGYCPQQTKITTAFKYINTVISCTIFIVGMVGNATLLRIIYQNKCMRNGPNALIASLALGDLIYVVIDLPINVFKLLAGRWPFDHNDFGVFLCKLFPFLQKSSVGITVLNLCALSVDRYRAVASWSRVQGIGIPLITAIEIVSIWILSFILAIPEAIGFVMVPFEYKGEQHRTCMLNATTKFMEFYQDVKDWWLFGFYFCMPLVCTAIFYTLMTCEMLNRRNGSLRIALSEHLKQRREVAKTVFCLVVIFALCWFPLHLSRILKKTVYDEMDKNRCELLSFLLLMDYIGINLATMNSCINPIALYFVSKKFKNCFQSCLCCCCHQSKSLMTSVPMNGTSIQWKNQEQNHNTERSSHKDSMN
Description: In vivo antagonist activity to ETA receptor in endothelin-1 induced Sprague-Dawley rat assessed as inhibition of transient depressor response at 10 to 30 mg/kg, po administered for 4 hrs. The note with it: dose 10-30 mg/kg. The class given is functional, organism-based.

The target of series [12] is Adenosine receptor A3 (Homo sapiens) (UniProt P0DMS8). Description: Displacement of [125I]AB-MECA from human recombinant adenosine A3 receptor at 10 uM incubated for 120 mins by radiometric based scintillation counter assay relative to control.
Adenosine receptor A3 (Homo sapiens), sequence (P0DMS8 whole entry): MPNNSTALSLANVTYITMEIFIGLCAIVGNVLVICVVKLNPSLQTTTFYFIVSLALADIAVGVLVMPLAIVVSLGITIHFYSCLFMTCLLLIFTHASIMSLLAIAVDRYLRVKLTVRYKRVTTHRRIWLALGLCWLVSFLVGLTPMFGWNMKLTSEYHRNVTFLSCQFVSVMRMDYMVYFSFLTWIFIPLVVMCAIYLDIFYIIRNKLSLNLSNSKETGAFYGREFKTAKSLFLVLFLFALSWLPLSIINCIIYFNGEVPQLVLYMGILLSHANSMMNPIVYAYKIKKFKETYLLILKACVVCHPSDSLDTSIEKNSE
Series [13] addresses D(4) dopamine receptor (Homo sapiens) (UniProt P21917). Description: Displacement of [3H]methyl-spiperone from human recombinant dopamine D4 receptor at 10 uM incubated for 60 mins by radiometric based scintillation counter assay relative to control.
A further series is filed under the species Homo sapiens. Description: Displacement of [125I]hCGRPalpha from calcitonin gene-related peptide (unknown origin) at 10 uM incubated for 90 mins by radiometric based scintillation counter assay relative to control.
Series [14] has as its target D(2) dopamine receptor (Homo sapiens) (UniProt P14416). Description: Displacement of [3H]methyl-spiperone from human recombinant dopamine D2 receptor at 10 uM incubated for 60 mins by radiometric based scintillation counter assay relative to control.
The species entered for series [15] is Rattus norvegicus. Description: Displacement of [3H]RX 821002 from rat brain […] at 10 uM incubated for 60 mins by radiometric based scintillation counter assay relative to control. The class given is tissue-based.
The target in series [16] is Cholecystokinin receptor type A (Homo sapiens) (UniProt P32238). Description: Displacement of [125I]CCK-8s from human recombinant cholecystokinin A receptor at 10 uM incubated for 60 mins by radiometric based scintillation counter assay relative to control.
Cholecystokinin receptor type A (Homo sapiens), sequence (P32238 whole entry): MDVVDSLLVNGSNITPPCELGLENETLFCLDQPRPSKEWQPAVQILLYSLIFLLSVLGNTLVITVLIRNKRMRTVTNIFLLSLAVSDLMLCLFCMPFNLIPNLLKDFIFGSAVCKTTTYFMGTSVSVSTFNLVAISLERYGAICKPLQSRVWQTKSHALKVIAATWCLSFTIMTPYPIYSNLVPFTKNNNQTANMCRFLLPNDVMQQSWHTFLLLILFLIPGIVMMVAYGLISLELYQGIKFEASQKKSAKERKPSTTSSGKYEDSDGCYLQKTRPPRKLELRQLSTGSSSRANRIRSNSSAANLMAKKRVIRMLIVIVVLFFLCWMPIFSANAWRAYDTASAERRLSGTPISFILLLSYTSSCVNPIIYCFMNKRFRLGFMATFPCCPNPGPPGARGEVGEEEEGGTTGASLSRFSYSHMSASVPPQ
Series [17] is filed under the species Mus musculus. Description: Displacement of [125I]Tyr11-somatostatin-14 from mouse Somatostatin receptor at 10 uM incubated for 60 mins by radiometric based scintillation counter assay relative to control.
In series [18] the target is 5-hydroxytryptamine receptor 2C (Homo sapiens) (UniProt P28335). Description: Displacement of [3H]mesulergine from human recombinant 5-Hydroxytryptamine 2C at 10 uM incubated for 120 mins by radiometric based scintillation counter assay relative to control.
5-hydroxytryptamine receptor 2C (Homo sapiens), sequence (P28335 whole entry): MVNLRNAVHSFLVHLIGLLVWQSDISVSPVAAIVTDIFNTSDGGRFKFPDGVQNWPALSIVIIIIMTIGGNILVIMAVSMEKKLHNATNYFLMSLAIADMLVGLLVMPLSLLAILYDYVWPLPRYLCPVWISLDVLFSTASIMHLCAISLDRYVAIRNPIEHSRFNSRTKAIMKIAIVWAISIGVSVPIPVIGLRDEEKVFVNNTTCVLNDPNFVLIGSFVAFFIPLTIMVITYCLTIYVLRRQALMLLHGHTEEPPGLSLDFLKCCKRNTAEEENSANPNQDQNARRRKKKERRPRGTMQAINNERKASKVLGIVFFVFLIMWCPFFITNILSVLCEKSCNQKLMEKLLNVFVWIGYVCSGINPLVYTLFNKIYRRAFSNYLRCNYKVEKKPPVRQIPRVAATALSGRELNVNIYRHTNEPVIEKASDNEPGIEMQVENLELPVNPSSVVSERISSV
Series [19] addresses Sigma non-opioid intracellular receptor 1 (Homo sapiens) (UniProt Q99720). Description: Displacement of [3H]DTG from human sigma-Receptor at 10 uM incubated for 120 mins by radiometric based scintillation counter assay relative to control.
For series [20], the target named is Adenosine receptor A1 (Homo sapiens) (UniProt P30542). Description: Displacement of [3H]DPCPX from human recombinant Adenosine A1 receptor at 10 uM incubated for 60 mins by radiometric based scintillation counter assay relative to control.
Adenosine receptor A1 (Homo sapiens), sequence (P30542 whole entry): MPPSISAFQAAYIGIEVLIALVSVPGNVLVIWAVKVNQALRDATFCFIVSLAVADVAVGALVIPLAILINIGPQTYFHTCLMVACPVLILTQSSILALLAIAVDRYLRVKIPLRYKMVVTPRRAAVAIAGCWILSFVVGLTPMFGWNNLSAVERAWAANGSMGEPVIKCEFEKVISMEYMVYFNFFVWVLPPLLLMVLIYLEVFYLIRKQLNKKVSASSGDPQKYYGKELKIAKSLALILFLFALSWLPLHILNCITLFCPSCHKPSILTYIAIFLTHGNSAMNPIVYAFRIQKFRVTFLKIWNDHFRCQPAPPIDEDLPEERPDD
In series [21] the target is T2, Endothelin receptor type B (Homo sapiens, UniProt P24530).
T2 sequence (P24530 whole entry): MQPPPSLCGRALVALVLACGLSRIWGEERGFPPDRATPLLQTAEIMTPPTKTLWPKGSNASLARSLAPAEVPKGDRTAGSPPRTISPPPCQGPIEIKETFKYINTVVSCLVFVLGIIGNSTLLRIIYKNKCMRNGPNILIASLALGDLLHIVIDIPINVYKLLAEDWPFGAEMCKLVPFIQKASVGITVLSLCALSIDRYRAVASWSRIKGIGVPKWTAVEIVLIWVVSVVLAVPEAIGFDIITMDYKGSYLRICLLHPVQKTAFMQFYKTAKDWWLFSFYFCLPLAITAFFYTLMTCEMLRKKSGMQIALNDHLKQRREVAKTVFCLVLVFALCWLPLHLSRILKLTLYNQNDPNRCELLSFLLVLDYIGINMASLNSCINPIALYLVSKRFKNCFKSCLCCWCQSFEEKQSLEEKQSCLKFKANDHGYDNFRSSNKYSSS
Description: Displacement of [125I]endhothelin-3 from human ETB receptor stably expressed in CHO cells Membrane at 25 degC incubated for 3 hrs by radioligand competition binding assay. The class given is cell membranes.

A short description of series [22]: Half life in Sprague-Dawley rat at 5 mg/kg, iv administered for 12 hrs by HPLC analysis. The class given is ADME, organism-based. The note with it: in vivo.

5-hydroxytryptamine receptor 1B (Homo sapiens), sequence (P28222 whole entry): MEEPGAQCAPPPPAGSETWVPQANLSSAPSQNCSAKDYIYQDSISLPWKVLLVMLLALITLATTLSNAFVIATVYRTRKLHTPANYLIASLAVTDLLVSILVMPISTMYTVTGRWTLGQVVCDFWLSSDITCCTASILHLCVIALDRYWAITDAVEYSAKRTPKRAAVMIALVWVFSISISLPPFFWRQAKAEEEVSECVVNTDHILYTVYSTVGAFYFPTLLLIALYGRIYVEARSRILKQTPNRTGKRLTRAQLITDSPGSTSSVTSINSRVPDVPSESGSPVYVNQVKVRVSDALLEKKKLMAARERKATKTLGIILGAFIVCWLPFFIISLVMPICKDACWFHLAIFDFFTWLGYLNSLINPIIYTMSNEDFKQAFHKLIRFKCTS
Sigma non-opioid intracellular receptor 1 (Homo sapiens), sequence (Q99720 whole entry): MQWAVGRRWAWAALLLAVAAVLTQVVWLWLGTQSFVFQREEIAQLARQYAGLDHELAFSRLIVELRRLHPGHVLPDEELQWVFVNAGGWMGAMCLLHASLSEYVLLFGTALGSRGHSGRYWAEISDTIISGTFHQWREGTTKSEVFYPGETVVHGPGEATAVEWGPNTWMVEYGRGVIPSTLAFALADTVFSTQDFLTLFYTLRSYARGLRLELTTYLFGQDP
D(4) dopamine receptor (Homo sapiens), sequence (P21917 whole entry): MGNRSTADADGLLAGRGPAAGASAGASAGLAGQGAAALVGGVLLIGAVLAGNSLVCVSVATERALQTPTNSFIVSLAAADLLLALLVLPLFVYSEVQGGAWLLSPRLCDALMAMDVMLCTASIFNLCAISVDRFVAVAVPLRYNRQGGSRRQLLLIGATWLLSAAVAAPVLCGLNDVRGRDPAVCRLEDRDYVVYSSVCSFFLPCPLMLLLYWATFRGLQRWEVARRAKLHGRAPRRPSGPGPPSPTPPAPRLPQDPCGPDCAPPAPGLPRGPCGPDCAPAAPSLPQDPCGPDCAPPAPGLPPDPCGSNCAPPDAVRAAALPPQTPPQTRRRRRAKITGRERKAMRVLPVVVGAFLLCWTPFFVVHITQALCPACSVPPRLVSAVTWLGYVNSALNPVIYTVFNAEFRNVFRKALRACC
5-hydroxytryptamine receptor 6 (Homo sapiens), sequence (P50406 whole entry): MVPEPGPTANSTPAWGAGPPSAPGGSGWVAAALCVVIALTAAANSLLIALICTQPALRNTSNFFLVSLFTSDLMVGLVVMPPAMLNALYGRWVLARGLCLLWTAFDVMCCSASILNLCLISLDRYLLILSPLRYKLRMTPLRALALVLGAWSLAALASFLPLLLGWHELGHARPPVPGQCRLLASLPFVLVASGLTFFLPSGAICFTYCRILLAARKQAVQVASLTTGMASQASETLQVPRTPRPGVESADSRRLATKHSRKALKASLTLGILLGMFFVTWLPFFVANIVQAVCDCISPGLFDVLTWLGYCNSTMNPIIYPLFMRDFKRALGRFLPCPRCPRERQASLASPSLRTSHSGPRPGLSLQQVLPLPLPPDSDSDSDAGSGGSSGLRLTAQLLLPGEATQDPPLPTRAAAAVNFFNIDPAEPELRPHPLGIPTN
D(2) dopamine receptor (Homo sapiens), sequence (P14416 whole entry): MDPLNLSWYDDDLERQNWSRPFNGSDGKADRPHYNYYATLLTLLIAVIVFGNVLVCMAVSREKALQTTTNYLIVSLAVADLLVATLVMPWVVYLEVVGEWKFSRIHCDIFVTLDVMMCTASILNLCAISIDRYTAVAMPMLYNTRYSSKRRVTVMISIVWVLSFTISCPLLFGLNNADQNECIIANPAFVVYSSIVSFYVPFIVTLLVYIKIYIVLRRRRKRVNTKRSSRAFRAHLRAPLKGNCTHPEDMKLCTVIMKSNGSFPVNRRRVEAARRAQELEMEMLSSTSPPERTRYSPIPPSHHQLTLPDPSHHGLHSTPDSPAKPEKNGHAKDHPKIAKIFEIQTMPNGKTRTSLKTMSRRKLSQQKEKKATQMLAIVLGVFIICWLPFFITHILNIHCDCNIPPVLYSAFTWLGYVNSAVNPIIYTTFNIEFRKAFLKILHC

Usually inhibition stands for the change of the read-out against control, counted positive when it falls. By bioavailability is commonly meant dose-corrected exposure relative to a reference, in per cent. The term IC50 denotes the concentration needed to halve the response being measured. Lower therefore signals greater potency in that assay. By half-life is commonly meant the time in which the quantity being followed falls by half. In the case of `CCCCN(CCCC)C(=O)CN1[C@H](c2cc(OC)c3c(c2)OCO3)C[C@@H](C(=O)O)[C@@H]1CC(C)(C)CCC`, the inhibition (in the series listed under Rattus norvegicus [1]; in series [2]; in series [3]; in [4]; in series [5]; in series [6]) was less than 10% in each case. The inhibition in the series filed under Mus musculus [7] was less than 10%; in [9], less than 10%; in series [12], 32%; in series [13] it was less than 10%; in the series listed under Homo sapiens it was less than 10%; in series [14], less than 10%. The inhibition in the series filed under Rattus norvegicus [15] is 18%; in [16], less than 10%; in the series listed under Mus musculus [17] it was less than 10%; in series [18] it was less than 10%; in [19], less than 10%; in [20] it was 23%. The outcome in [8] and in series [11] was inactive. In series [10], this compound returned a bioavailability of 47.7%. The same compound had an IC50 in [21] of 15.4 µM. Moreover, the half-life in series [22] was 1.6 h.
